Reference: ChEMBL document CHEMBL1201862, “PubChem BioAssay data set” (2004)
The source made the active and inactive calls.

Columns and labels:
[1] = target: Long-chain-fatty-acid--AMP ligase FadD28 (Mycobacterium tuberculosis, UniProt P9WQ59); assay: Fluorescence polarization aasay to screen for inhibitors that compete for the binding of FadD28 to a bisubstrate Measured in Biochemical System Using Plate Reader - 2147-01_Inhibitor_Dose_CherryPick_Activity.; assay type: functional, Mycobacterium tuberculosis H37Rv
[2] = target: T1, Corticotropin-releasing factor receptor 2/Corticotropin-releasing factor-binding protein (Homo sapiens, UniProt P24387+Q13324); assay: activators of CRF receptor 2 with binding protein – uHTS hits, confirmation (AID 602473); assay type: functional; conditions: read-out: EC50_Mean
T1 sequence (Q13324 whole entry): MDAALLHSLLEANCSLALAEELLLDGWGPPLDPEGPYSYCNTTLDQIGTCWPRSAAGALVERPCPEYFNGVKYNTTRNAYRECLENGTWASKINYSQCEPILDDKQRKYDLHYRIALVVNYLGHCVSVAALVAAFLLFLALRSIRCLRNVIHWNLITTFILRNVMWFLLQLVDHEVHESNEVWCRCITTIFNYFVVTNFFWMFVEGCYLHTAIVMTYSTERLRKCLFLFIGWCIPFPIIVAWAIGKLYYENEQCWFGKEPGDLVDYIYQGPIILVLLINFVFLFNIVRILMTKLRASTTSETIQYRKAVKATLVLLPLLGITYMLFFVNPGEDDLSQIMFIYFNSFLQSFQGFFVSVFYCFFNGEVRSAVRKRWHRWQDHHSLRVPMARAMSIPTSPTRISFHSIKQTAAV
T1 sequence (P24387 whole entry): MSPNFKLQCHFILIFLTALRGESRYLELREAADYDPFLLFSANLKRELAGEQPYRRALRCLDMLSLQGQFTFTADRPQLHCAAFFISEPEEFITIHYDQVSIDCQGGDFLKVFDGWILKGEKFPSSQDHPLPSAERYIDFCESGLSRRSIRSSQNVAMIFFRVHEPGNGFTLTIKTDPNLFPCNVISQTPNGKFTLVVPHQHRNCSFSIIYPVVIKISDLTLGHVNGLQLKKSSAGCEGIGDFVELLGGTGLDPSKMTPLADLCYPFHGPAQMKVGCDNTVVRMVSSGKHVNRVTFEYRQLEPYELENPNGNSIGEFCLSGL

[3] = toxicity toward HepG2 liver cells – cell-based, plate reader, cherry-pick, antagonist series, cytotoxicity control, dose response (AID 743416); assay type: functional
[4] = A549 cell cytotoxicity, dose response, cytotoxicity control, plate reader, cherry-pick, antagonist series (AID 743412); assay type: functional, cell-based
Major prion protein = Major prion protein (Homo sapiens, UniProt P04156); assay type: functional, cell-based
[5] = target: Peroxisome proliferator-activated receptor gamma/Nuclear receptor coactivator 3 (Homo sapiens, UniProt P37231); assay: TR-FRET dose response biochemical High Throughput Screening assay for agonists of the steroid receptor coactivator 3 (SRC-3) recruitment by the peroxisome proliferator-activated receptor gamma (PPAR gamma): non-selective agonists. [Related pubchem assays: 1301 (Confirmation screen.), 1048 (Primary screen.)]; assay type: functional
cells [6] = assay: cells
[7] = target: Peroxisome proliferator-activated receptor gamma/Nuclear receptor coactivator 2 (Homo sapiens, UniProt P37231); assay: (§1) TR-FRET dose response biochemical High Throughput Screening assay for agonists of the steroid receptor coactivator 2 (SRC-2) recruitment by the peroxisome proliferator-activated receptor gamma (PPAR gamma): non-selective agonists. [Related pubchem assays: 1297, 1032 ]; assay type: functional
[8] = target: Mitogen-activated protein kinase 10 (Homo sapiens, UniProt P53779); assay: Dose response biochemical screening assay for inhibitors of c-Jun N-Terminal Kinase 3 (JNK3). [Related pubchem assays: 746 ]
[9] = target: Peroxisome proliferator-activated receptor gamma/Nuclear receptor coactivator 1 (Homo sapiens, UniProt P37231); assay: as §1, with “1 (SRC-1)” for “2 (SRC-2)”, “assays (depositor defined):AID1300, AID1808, AID504735, AID631]” for “assays: 1297, 1032 ]”; assay type: protein assay
cells [10] = conditions: A549
cells [11] = conditions: HEK293
[12] = viability loss in HepG2 liver cells – cell-based, ATP luminescence, cherry-pick, set 6, cytotoxicity control, dose response (AID 1053125); assay type: functional
[13] = target: T2, Nuclear receptor subfamily 0 group B member 1 (Homo sapiens, UniProt P51843); assay type: functional, cell-based;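 note: HEK293T cells transfected with SF-1 and DAX-1 plus StAR promoter luciferase reporter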
T2 sequence (P51843 whole entry): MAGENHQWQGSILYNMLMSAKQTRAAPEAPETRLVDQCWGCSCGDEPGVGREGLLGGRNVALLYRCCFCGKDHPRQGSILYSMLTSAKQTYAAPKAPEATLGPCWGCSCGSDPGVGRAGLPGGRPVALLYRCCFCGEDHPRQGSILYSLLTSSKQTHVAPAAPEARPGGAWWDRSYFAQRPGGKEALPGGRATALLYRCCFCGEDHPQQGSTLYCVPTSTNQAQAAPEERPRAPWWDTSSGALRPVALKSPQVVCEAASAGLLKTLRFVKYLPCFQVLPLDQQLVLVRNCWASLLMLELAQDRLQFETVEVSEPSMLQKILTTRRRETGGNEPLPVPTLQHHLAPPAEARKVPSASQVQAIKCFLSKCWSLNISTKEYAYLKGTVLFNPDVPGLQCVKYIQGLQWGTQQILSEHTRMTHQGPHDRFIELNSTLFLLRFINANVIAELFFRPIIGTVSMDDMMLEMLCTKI

cells [14] = assay type: functional, cell-based
cells [15] = assay: cells; remark: listed apart in the source
[16] = target: T3, Oxysterols receptor LXR-beta (Homo sapiens, UniProt P55055); assay type: functional, cell-based;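 note: Cell-based luminescence dose-response assay of agonist activity at LXR, run as a confirmatory counterscreen to a daf-12 agonist screen; HEK293 cells with Gal4-LXR fusion and GAL4-driven luciferase reporter; agonist potency from rising luciferase signal of a Gal4-LXR reporter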
T3 sequence (P55055 whole entry): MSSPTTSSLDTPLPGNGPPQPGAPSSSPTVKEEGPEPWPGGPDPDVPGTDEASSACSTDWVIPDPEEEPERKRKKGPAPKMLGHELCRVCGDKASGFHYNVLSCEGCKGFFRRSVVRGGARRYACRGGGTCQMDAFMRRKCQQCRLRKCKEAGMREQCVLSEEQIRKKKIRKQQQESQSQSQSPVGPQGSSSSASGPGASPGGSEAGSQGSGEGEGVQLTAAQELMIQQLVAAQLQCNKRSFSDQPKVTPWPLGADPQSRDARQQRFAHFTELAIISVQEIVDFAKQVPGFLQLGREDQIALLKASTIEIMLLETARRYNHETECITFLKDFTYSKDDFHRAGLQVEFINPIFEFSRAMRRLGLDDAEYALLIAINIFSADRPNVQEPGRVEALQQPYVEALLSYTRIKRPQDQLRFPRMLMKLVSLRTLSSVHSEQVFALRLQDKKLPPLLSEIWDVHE

BJ [17] = assay: BJ-TERT fibroblast viability loss – cell-based, RAS-independent, luminescence, dose response (AID 1933); assay type: functional; conditions: Homo sapiens
[18] = DRD fibroblast viability loss – cell-based, non-viral oncogenic, luminescence, dose response (AID 1934); assay type: functional; conditions: Homo sapiens
[19] = Luminescence Cell-Based Dose Response HTS to Identify Inhibitors of 5'UTR Stem-Loop Driven Prion Protein mRNA Translation in H4 Neuroglioblastoma Cells. [Related pubchem assays: 1827 (Project Summary), 1813 (Primary HTS)]; assay type: functional
BJ [20] = assay: BJ-TERT-LT-ST fibroblast viability loss – cell-based, RAS-independent, luminescence, dose response (AID 1935); assay type: functional; conditions: Homo sapiens;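 note: BJ fibroblasts immortalized with TERT plus LT and ST oncogenes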
BJ [21] = assay: cells; assay type: functional, cell-based; conditions: Homo sapiens
[22] = viability loss in HEK293T cells – cell-based, cherry-picks, cytotoxicity control for HIV Vif inhibitor project, dose response (AID 652208); assay type: functional
BJ [23] = assay: growth inhibition of engineered Ras-driven BJ cells – cell-based, alamar blue fluorescence, cherrypicked samples, dose response (AID 2631); assay type: functional; conditions: Homo sapiens;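 note: confirmatory dose-response assay in RAS-dependent BJ fibroblasts engineered with TERT, LT and ST, with cytotoxicity read by fluorescence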
[24] = luciferase reporter signal suppression in cells – H4 neuroglioma cells, luminescence, dose response (AID 1990); assay type: functional, cell-based
INS1 = assay: INS-1E survival protection against cytokine death – cell-based, luminescence, retest, dose response (AID 449756); assay type: functional; conditions: Rattus norvegicus;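 note: cell death triggered by IL-1 beta plus TNF-alpha plus IFN-gamma mixture; protective hits raise ATP signal compared with cytokine alone wells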
fMet-Leu-Phe receptor = fMet-Leu-Phe receptor (Homo sapiens, UniProt P21462); assay: formyl peptide receptor binders – dose response (AID 519); assay type: functional
[25] = viability of uninfected HEp-2 cells – cell-based, HTS, cytotoxicity control for RSV inhibitor project, dose response (AID 2410); assay type: functional; conditions: human respiratory syncytial virus
[26] = T. cruzi growth inhibition in host cells, dose response, cell-based, plate reader, dry powder, set 2 (AID 652275); assay type: functional
[27] = OVCAR-3 cell viability loss – plate reader, dry powder samples, PAX8 inhibitor project, dose response (AID 743044); assay type: functional, cell-based
Paired box protein Pax-8 = Paired box protein Pax-8 (Homo sapiens, UniProt Q06710); assay: PAX8 transcriptional activity inhibition in RMG-I – RMG-I cells, luciferase, cherry-pick, dose response (AID 687027); assay type: functional, cell-based;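 note: luciferase reporter driven by Pax8 target thyroperoxidase promoter measured by SteadyGlo luminescence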
[28] = IGROV1 cell killing – plate reader, dry powder samples, PAX8 inhibitor project, dose response (AID 743043); assay type: functional, cell-based; conditions: IGROV-1

SMILES: O=C1N=C(S)SC1=Cc1ccc(N(CCCl)CCCl)cc1
- AC50 [1]: 66.7 µM (active)
- EC50 [2]: 5.45 µM (active)

SMILES: Cn1c(=O)c2cc(NC(=O)NCc3ccccc3)ccc2n1C/C=C/c1ccccc1
- AC50 [3]: 36.9 µM (active)
- AC50 [4]: 18.2 µM (active)

SMILES: COc1ccc2c(Cl)c(C(N)=O)sc2c1
- IC50 (Major prion protein): 2.46 µM (active)
- EC50 [5]: > 79.4 µM (not active)
- IC50 (cells [6]): > 138 µM (inactive)
- EC50 [7]: 16.7 µM (not active)
- IC50 [8]: 68.3 µM (not active)
- EC50 [9]: > 79.4 µM (inactive)

SMILES: CC(=O)Nc1cccc(-c2ccnc3c2CC(C(=O)NCc2cccc(Cl)c2)O3)c1 (stereo not drawn)
- AC50 (cells [10]): > 52 µM (inactive)
- AC50 (cells [11]): 40.1 µM (active)
- AC50 [12]: > 52 µM (inactive)

SMILES: CN1CCN(c2ccc(-c3cccc(NC(=O)COc4ccccc4)c3)nn2)CC1
- IC50 [13]: > 67.5 µM (inactive)
- IC50 (cells [14]): > 67.5 µM (inactive)

SMILES: c1ccc(-c2csc(Nc3ccc4c(c3)OCCO4)n2)cc1
- EC50 (cells [15]): > 67.5 µM (inactive)
- EC50 [16]: > 67.5 µM (inactive)

SMILES: CC1CN(S(=O)(=O)c2ccc(C(=O)NCCCn3ccnc3)cc2)CC(C)O1 (stereo not drawn)
- EC50 (BJ [17]): > 150 µM (not active)
- EC50 [18]: 13.2 µM (active)
- EC50 [19]: 7.94 µM (active)
- EC50 (BJ [20]): 3.76 µM (inconclusive)
- EC50 (BJ [21]): 5.83 µM (inconclusive)
- AC50 [22]: > 52 µM (inactive)
- EC50 (BJ [23]): 390 nM (active)
- EC50 [24]: 11.1 µM (active)
- AC50 (INS1): 1.17 µM (active)

SMILES: Cc1nc2c(-c3ccc(F)cc3)c(C)nn2c(C)c1CCC(=O)NC(C)CCc1ccco1 (stereo not drawn)
- Ki (fMet-Leu-Phe receptor): > 66.7 µM (inactive)
- CC50 [25]: > 50 µM (active)

SMILES: CCN(C)C[C@H]1Oc2c(NC(=O)c3ccncc3)cccc2C(=O)N(C(C)C)[C@@H]1C
- AC50 [26]: 84.2 nM (active)

SMILES: O=C(c1ccc(F)cc1)c1cn(Cc2ccc(F)cc2)c2cc3c(cc2c1=O)OCCO3
- IC50 (Major prion protein): 3.03 µM (active)
- IC50 (cells [6]): > 138 µM (inactive)

SMILES: Cc1ccc(C(=O)Nc2ncccc2O)o1
- IC50 [13]: 24.7 µM (inactive)
- IC50 (cells [14]): > 67.6 µM (inactive)

SMILES: COc1cccc(CN(C)C[C@H]2Oc3c(NC(=O)c4ccncc4)cccc3C(=O)N([C@@H](C)CO)C[C@@H]2C)c1
- AC50 [26]: 56.8 nM (active)

SMILES: C[C@H](CO)N1C[C@H](C)[C@H](CN(C)Cc2ccc(C(F)(F)F)cc2)OCCCC[C@H](C)Oc2ccc(NC(=O)Nc3ccc4c(c3)OCO4)cc2C1=O
- AC50 [27]: 28.6 µM (active)
- AC50 (Paired box protein Pax-8): 5.42 µM (active)
- AC50 [28]: 40.3 µM (active)

SMILES: COc1ccc(C2C(C(=O)c3ccco3)=C(O)C(=O)N2CCc2ccccc2)cc1OC (stereo not drawn)
- Ki (fMet-Leu-Phe receptor): 36.9 µM (inactive)
